Peptide text beside a SMILES is read from it. * marks the point of attachment. Cbz = O=C(OCc1ccccc1)*

In experiment [1] the test system is Human Mammary Epithelial Cells (HMEC). Put plainly: Proliferation of normal breast cells (HMEC) after siRNA. The format is cell-based. As to conditions: siRNA transfection. The method, then:
An invasive, estrogen-independent breast cancer cell line that spontaneously expresses high levels of Notch-1 and -4, MDA-MB231, and normal human breast cells were used to investigate whether inhibition of Notch activation or expression affects the biological behavior of breast cancer cells. […] Sequence specificity was determined by BLAST searches which determined the uniqueness of the sequences. […] Transfected cells were identified by Streptavidin-horseradish peroxidase staining (Vectastain) and counted. […]
Cytotoxicity and growth of transfected cells were estimated by a standard assay used for cancer drug screening, through the total amount of TCA-precipitated cell proteins after drug treatment (Likhitwitayawuid, K et al., 1993, J Nat Prod 56:30-38): 200 μl of cell suspension (10^5 cells/ml) were added to each well in a 96-well plate. […] Plates were shaken for 5-10 minutes and OD at 490 nm (OD490) was recorded via ELISA reader. […] After removal of the non-invading cells from the interior of the inserts, stained invading cells were lysed in 10% acetic acid and OD595 was determined.

The subject of experiment [2] is NOXA. Description: Western blot of NOXA after proteasome inhibitors in melanoma cells. The format is cell-based, human. As to conditions: RJ002L, C8161, MUM2B, 18 hrs. The text has this:
A panel of melanoma cells were used to assess the effect of bortezomib on pro-apoptotic proteins. RJ002L, C8161, MUM2B and SK-MeI-28 melanoma cells, as well as two normal melanocyte cultures (MC-010 and MC-012) were examined. Prior to testing, the RJ002L melanoma cell lines were maintained in RPMI supplemented with 10% FBS. Late passage melanoma cell lines (C8161, MUM2B and SK-Me1028) were utilized as previously described (Welch D et al., 1991, Int J Cancer 47:227-237; Bittner M et al., 2000, Nature 406:536-540). Normal human melanocytes were isolated from neonatal foreskins and cultured as previously described (Qin J et al., 2004, Mol Cancer Ther 3:895-902). Proliferating cells were examined by Western blot analysis before and after 18 hrs of exposure to bortezomib (1 μM). Antibodies were obtained as follows: Bad (SC-8044), Bcl-2 (SC-7382), Bcl-xL (SC-634), Mcl-1 (SC-819), Bak (SC-832) from Santa Cruz Biotechnology (Santa Cruz, Calif.); NOXA (OP180) from Calbiochem; Bid, Bim and PUMA from Cell Signaling (Beverly, Mass.); BAX from Upstate (Charlottesville, Va.); and β-actin from ICN (Irvine, Calif.). For the Western blot analysis, whole cell extracts were prepared as previously described (Denning M et al., 1998, J Biol Chem 273:29995-30002). Briefly, cells were harvested by scraping monolayers and washed with PBS. Cell pellets were resuspended in CHAPS buffers containing a protease inhibitor cocktail. Extracts were vigorously shaken at 4° C. for 15 min followed by centrifugation. Supernatants were collected and protein concentration determined using Bio-Rad reagent. Thirty to 50 microgram protein samples were resolved by SDS-polyacrylamide gel electrophoresis and transferred to polyvinylidene difluoride membrane by electroblotting. Membranes were probed with the various primary antibodies overnight at 4° C., followed by detection using ECL reagents (Amersham Pharmacia Biotech, Piscataway, N.J.) according to manufacturer's instructions.
Two other proteasome inhibitors, lactasytsin and MG-132, were tested for the ability to induce NOXA in melanoma cells and melanocytes. […]

Experiment [3] has as its system C8161 melanoma tumors. Put plainly: C8161 melanoma xenograft in Nude mice, peri-tumoral bortezomib.

For the compound “5′-AAGTGTCTGAGGCCAGCAAGA-3′ [Notch-1 siRNA]”, in experiment [1], the proliferation result is “inhibits proliferation of normal breast cells”.
`CC(C)C[C@@H](C=O)NC(=O)[C@H](CC(C)C)NC(=O)[C@H](CC(C)C)NC(=O)OCc1ccccc1` [MG-132, benzoxycarbonyl-Leucyl-Leucyl-Leucyl-aldehyde] (Cbz-Leu-Leu-Leu-aldehyde): the NOXA induction result in experiment [2] (1 μM or 10 μM) is reported as “induced high NOXA levels”.
With `CC(C)C[C@H](NC(=O)[C@H](Cc1ccccc1)NC(=O)c1cnccn1)B(O)O` [bortezomib, N-(2-pyrazine)carbonyl-L-phenylalanine-L-leucine boronic acid], the tumor growth result in experiment [3] (1.25 mg/kg or 2.5 mg/kg, four peri-tumoral injections, compared to PBS) is on record as “regression of melanoma tumors occurred”. Further, the tumor weight result in experiment [3] (1.25 mg/kg versus PBS, day 20) was “significant (p<0.01) reduction in tumor weight”; in experiment [3] (2.5 mg/kg dose compared with 1.25 mg/kg), “no further reduction was apparent”. In addition, the “histological appearance of tumor (H&E)” value in experiment [3] (2.5 mg/kg) is “scattered apoptotic C8161 cells are present”. Further, the “induction of BH3-only proteins” value in experiment [2] (SK-MeI-28, 1 μM) is “only NOXA was consistently induced in all four melanoma cells”.
